Measured values reported in patent US4681872A (priority 1985, dated 1987).
In brackets after ≈: the same amount, converted by molar mass. Like-named read-outs stand apart in the source and are kept apart here.

Tests used:
E. coli KNK 437 = assay: antimicrobial spectrum, agar dilution MIC
[1] = tested on: Staph. epidermidis 3519 RARI; assay: microbe, parasite or virus in culture; format: cell-based
Enterococcus GYR 1164 = assay: antimicrobial spectrum, agar dilution MIC
[2] = tested on: Strep. agalactiae CMX 508; assay: antimicrobial spectrum, agar dilution MIC
Bact. fragilis SFM2975-7 = assay: antimicrobial spectrum, agar dilution MIC; format: cell-based; settings: 35°-37° C., 20-24 hours
[3] = tested on: Peptostrep. micros ATCC 33270; assay: antimicrobial spectrum, agar dilution MIC
[4] = tested on: Staph. epidermidis CMX 724G; assay: antimicrobial spectrum, agar dilution MIC
[5] = tested on: Peptostrep. anaerobius ATCC 27337; assay: antimicrobial spectrum, agar dilution MIC
Strep. bovis A5169 = assay: antimicrobial spectrum, agar dilution MIC; format: cell-based; settings: BHI agar, 35°-37° C., 20-24 hours
Enterococcus CMX 736F = assay: antimicrobial spectrum, agar dilution MIC
Strep. pyogenes = assay: acute mouse protection test; format: in vivo, Swiss albino mice; settings: mice, dosed 1 and 5 hours post-infection, observed 7 days; for ED50: Streptococcus pyogenes, 168 h
Staph. aureus CYR 1150 = assay: antimicrobial spectrum, agar dilution MIC; format: cell-based; settings: 35°-37° C., 20-24 hours
[6] = tested on: Bact. melaninogenicus ATCC 15930; assay: antimicrobial spectrum, agar dilution MIC; format: cell-based; settings: 35°-37° C., 20-24 hours
Cl. difficile ATCC 9689 = assay: antimicrobial spectrum, agar dilution MIC
Staph. aureus CMX 705 = assay: antimicrobial spectrum, agar dilution MIC; format: cell-based; settings: 35°-37° C., 20-24 hours
[7] = tested on: Strep. pneumoniae CMX 635; assay: antimicrobial spectrum, agar dilution MIC; format: cell-based; settings: 35°-37° C., 20-24 hours
Fusobacterium SP GS-10 = assay: antimicrobial spectrum, agar dilution MIC
E. coli DC-2 = assay: antimicrobial spectrum, agar dilution MIC
Staph. aureus CMX 739A = assay: antimicrobial spectrum, agar dilution MIC; format: cell-based; settings: BHI agar, 35°-37° C., 20-24 hours
Staph. aureus = assay: acute mouse protection test; format: in vivo, Swiss albino mice; settings: for ED50: Staphylococcus aureus, 168 h
[8] = tested on: Staph. epidermidis GYR 1151; assay: antimicrobial spectrum, agar dilution MIC; format: cell-based; settings: 35°-37° C., 20-24 hours
[9] = tested on: Bact. thetaiotamicron 106; assay: antimicrobial spectrum, agar dilution MIC
Enterococcus CMX 729G = assay: antimicrobial spectrum, agar dilution MIC
Pep. magnus ATCC 29328 = assay: antimicrobial spectrum, agar dilution MIC; format: cell-based; settings: 35°-37° C., 20-24 hours
Staph. aureus ATCC 25923 = assay: antimicrobial spectrum, agar dilution MIC; format: cell-based; settings: 35°-37° C., 20-24 hours
Bact. fragilis SFM2929-1 = assay: antimicrobial spectrum, agar dilution MIC
[10] = tested on: Bact. thetaiotamicron 3304; assay: antimicrobial spectrum, agar dilution MIC; format: cell-based; settings: BHI agar, 35°-37° C., 20-24 hours
[11] = tested on: Strep. pyogenes M79061-140; assay: antimicrobial spectrum, agar dilution MIC; format: cell-based; settings: 35°-37° C., 20-24 hours
Acinetobacter SP CMX 669 = assay: antimicrobial spectrum, agar dilution MIC
Enterococcus GYR 1166 = assay: microbe, parasite or virus in culture; format: cell-based
[12] = tested on: Pseudomonas aeruginosa K799/61; assay: antimicrobial spectrum, agar dilution MIC
[13] = tested on: Pseudomonas aeruginosa K799/WT; assay: antimicrobial spectrum, agar dilution MIC; settings: BHI agar, 35°-37° C., 20-24 hours
[14] = tested on: Lactobacillus Casei ATCC 7469; assay: antimicrobial spectrum, agar dilution MIC; settings: BHI agar, 35°-37° C., 20-24 hours
Strep. pyogenes 930 = assay: antimicrobial spectrum, agar dilution MIC; settings: BHI agar, 35°-37° C., 20-24 hours
Bact. fragilis 784 = settings: BHI agar, 35°-37° C., 20-24 hours
Strep. faecium ATCC 8043 = assay: antimicrobial spectrum, agar dilution MIC; format: cell-based; settings: BHI agar, 35°-37° C., 20-24 hours

## CC[C@H]1OC(=O)[C@H](C)[C@@H](O[C@H]2C[C@@](C)(OC)[C@@H](O)[C@H](C)O2)[C@H](C)[C@@H](O[C@@H]2O[C@H](C)C[C@H](N(C)C)[C@H]2O)[C@](C)(O)C[C@@H](C)C(=O)[C@H](C)[C@@H](O)[C@]1(C)O [Erythromycin A, reference compound]
E. coli KNK 437; Escherichia coli, KNK437
  MIC: 100 µg/mL (≈ 136 µM)
[1]; Staphylococcus epidermidis, 3519RARI
  MIC: 0.39 µg/mL (≈ 0.531 µM)
Enterococcus GYR 1164; Enterococcus, GYR1164
  MIC: 2 µg/mL (≈ 2.73 µM)
[2]; Streptococcus agalactiae, CMX508
  MIC: 0.05 µg/mL (≈ 0.0681 µM)
Bact. fragilis SFM2975-7; Bacteroides fragilis, SFM29757, BHI agar, read-out: MIC
  MIC: 6.3 µg/mL (≈ 8.58 µM)
[3]
  MIC: 0.1 µg/mL (≈ 0.136 µM)
[4]; Staphylococcus epidermidis, CMX724G
  MIC: 128 µg/mL (≈ 174 µM)
[5]
  MIC: 0.05 µg/mL (≈ 0.0681 µM)
Strep. bovis A5169; Streptococcus equinus, read-out: MIC
  MIC: 0.01 µg/mL (≈ 0.0136 µM)
Enterococcus CMX 736F; Enterococcus, CMX736F
  MIC: 0.1 µg/mL (≈ 0.136 µM)
Strep. pyogenes; oral
  ED50: 50 mg/kg
Strep. pyogenes; sc, subcutaneous
  ED50: 3.5 mg/kg
Staph. aureus CYR 1150; Staphylococcus aureus, CYR1150, BHI agar, read-out: MIC
  MIC: 0.12 µg/mL (≈ 0.164 µM)
[6]; Prevotella intermedia, ATCC15930, BHI agar, read-out: MIC
  MIC: 0.4 µg/mL (≈ 0.545 µM)
Cl. difficile ATCC 9689; Clostridioides difficile, ATCC9689
  MIC: 0.4 µg/mL (≈ 0.545 µM)
Staph. aureus CMX 705; Staphylococcus aureus, CMX705, BHI agar, read-out: MIC
  MIC: 0.06 µg/mL (≈ 0.0818 µM)
[7]; Streptococcus pneumoniae, CMX635, BHI agar, read-out: MIC
  MIC: 0.008 µg/mL (≈ 0.0109 µM)
Fusobacterium SP GS-10; Fusobacterium, SPGS10
  MIC: 50 µg/mL (≈ 68.1 µM)
E. coli DC-2; Escherichia coli, DC2
  MIC: 50 µg/mL (≈ 68.1 µM)
Staph. aureus CMX 739A; Staphylococcus aureus, CMX739A, read-out: MIC
  MIC: 0.06 µg/mL (≈ 0.0818 µM)
Staph. aureus; Staph. aureus, mice, oral, dosed 1 and 5 hours post-infection, observed 7 days, read-out: ED-50
  ED50: 141 mg/kg
Staph. aureus; sc
  ED50: 21.4 mg/kg
[8]; Staphylococcus epidermidis, GYR1151, BHI agar, read-out: MIC
  MIC: 0.06 µg/mL (≈ 0.0818 µM)
[9]
  MIC: 3.1 µg/mL (≈ 4.22 µM)
Enterococcus CMX 729G; Enterococcus, CMX729G
  MIC: 0.1 µg/mL (≈ 0.136 µM)
Pep. magnus ATCC 29328; Finegoldia magna, ATCC29328, BHI agar, read-out: MIC
  MIC: 0.4 µg/mL (≈ 0.545 µM)
Staph. aureus ATCC 25923; Staphylococcus aureus, ATCC25923, BHI agar, read-out: MIC
  MIC: 0.06 µg/mL (≈ 0.0818 µM)
Bact. fragilis SFM2929-1; Bacteroides fragilis, SFM29291
  MIC: 3.1 µg/mL (≈ 4.22 µM)
[10]; read-out: MIC
  MIC: 6.3 µg/mL (≈ 8.58 µM)
[11]; Streptococcus pyogenes, M79061140, BHI agar, read-out: MIC
  MIC: 0.002 µg/mL (≈ 0.00273 µM)
Acinetobacter SP CMX 669; Acinetobacter, SPCMX669
  MIC: 12.5 µg/mL (≈ 17 µM)
Enterococcus GYR 1166; Enterococcus, GYR1166
  MIC: 1 µg/mL (≈ 1.36 µM)
[12]; Pseudomonas aeruginosa, K799/61
  MIC: 3.1 µg/mL (≈ 4.22 µM)

## CCC1OC(=O)C(C)C(OC2CC(C)(OC)CC(C)O2)C(C)C(OC2OC(C)CC(N(C)C)C2O)C(C)(O)CC(C)C(=O)C(C)C2OC(=O)OC12C (centres unmarked) [4"-deoxyerythromycin A 11,12-carbonate]
E. coli KNK 437; E. coli KNK 437, BHI agar, 35°-37° C., 20-24 hours
  MIC: 25 µg/mL (≈ 33.6 µM)
[1]; Staph. epidermidis 3519 RARI, BHI agar, 35°-37° C., 20-24 hours
  MIC: .1 µg/mL (≈ 0.134 µM)
Enterococcus GYR 1164; Enterococcus GYR 1164, BHI agar, 35°-37° C., 20-24 hours
  MIC: .12 µg/mL (≈ 0.161 µM)
[13]
  MIC: 100 µg/mL (≈ 134 µM)
[2]; Strep. agalactiae CMX 508, BHI agar, 35°-37° C., 20-24 hours
  MIC: .02 µg/mL (≈ 0.0269 µM)
Bact. fragilis SFM2975-7; BHI agar
  MIC: .8 µg/mL (≈ 1.08 µM)
[3]; Peptostrep. micros ATCC 33270, BHI agar, 35°-37° C., 20-24 hours
  MIC: .05 µg/mL (≈ 0.0672 µM)
[4]; Staph. epidermidis CMX 724G, BHI agar, 35°-37° C., 20-24 hours
  MIC: 128 µg/mL (≈ 172 µM)
[5]; Peptostrep. anaerobius ATCC 27337, BHI agar, 35°-37° C., 20-24 hours
  MIC: .05 µg/mL (≈ 0.0672 µM)
Strep. bovis A5169
  MIC: .005 µg/mL (≈ 0.00672 µM)
Enterococcus CMX 736F; Enterococcus CMX 736F, BHI agar, 35°-37° C., 20-24 hours
  MIC: .12 µg/mL (≈ 0.161 µM)
Strep. pyogenes; oral
  ED-50: 8.9 mg/kg
Strep. pyogenes; subcutaneous
  ED-50: 4.0 mg/kg
Staph. aureus CYR 1150; BHI agar
  MIC: .03 µg/mL (≈ 0.0403 µM)
[6]; BHI agar
  MIC: .1 µg/mL (≈ 0.134 µM)
Cl. difficile ATCC 9689; Cl. difficile ATCC 9689, BHI agar, 35°-37° C., 20-24 hours
  MIC: .4 µg/mL (≈ 0.538 µM)
Staph. aureus CMX 705; BHI agar
  MIC: .03 µg/mL (≈ 0.0403 µM)
[7]; BHI agar
  MIC: .008 µg/mL (≈ 0.0108 µM)
Fusobacterium SP GS-10; Fusobacterium SP GS-10, BHI agar, 35°-37° C., 20-24 hours
  MIC: 25 µg/mL (≈ 33.6 µM)
E. coli DC-2; E. coli DC-2, BHI agar, 35°-37° C., 20-24 hours
  MIC: 25 µg/mL (≈ 33.6 µM)
Staph. aureus CMX 739A
  MIC: .03 µg/mL (≈ 0.0403 µM)
[14]
  MIC: .01 µg/mL (≈ 0.0134 µM)
Strep. pyogenes 930
  MIC: 100 µg/mL (≈ 134 µM)
Staph. aureus; Staph. aureus, mice, oral, dosed 1 and 5 hours post-infection, observed 7 days
  ED-50: 31.4 mg/kg
Staph. aureus; Staph. aureus, mice, subcutaneous, dosed 1 and 5 hours post-infection, observed 7 days
  ED-50: 36.3 mg/kg
[8]; BHI agar
  MIC: .06 µg/mL (≈ 0.0807 µM)
[9]; Bact. thetaiotamicron 106, BHI agar, 35°-37° C., 20-24 hours
  MIC: 3.1 µg/mL (≈ 4.17 µM)
Enterococcus CMX 729G; Enterococcus CMX 729G, BHI agar, 35°-37° C., 20-24 hours
  MIC: .12 µg/mL (≈ 0.161 µM)
Pep. magnus ATCC 29328; BHI agar
  MIC: .2 µg/mL (≈ 0.269 µM)
Staph. aureus ATCC 25923; BHI agar
  MIC: .03 µg/mL (≈ 0.0403 µM)
Bact. fragilis SFM2929-1; Bact. fragilis SFM2929-1, BHI agar, 35°-37° C., 20-24 hours
  MIC: 1.6 µg/mL (≈ 2.15 µM)
[10]
  MIC: 3.1 µg/mL (≈ 4.17 µM)
Bact. fragilis 784
  MIC: .4 µg/mL (≈ 0.538 µM)
Strep. faecium ATCC 8043
  MIC: .05 µg/mL (≈ 0.0672 µM)
[11]; BHI agar
  MIC: .001 µg/mL (≈ 0.00134 µM)
Acinetobacter SP CMX 669; Acinetobacter SP CMX 669, BHI agar, 35°-37° C., 20-24 hours
  MIC: 6.2 µg/mL (≈ 8.33 µM)
Enterococcus GYR 1166; Enterococcus GYR 1166, BHI agar, 35°-37° C., 20-24 hours
  MIC: .12 µg/mL (≈ 0.161 µM)
[12]; Pseudomonas aeruginosa K799/61, BHI agar, 35°-37° C., 20-24 hours
  MIC: 1.56 µg/mL (≈ 2.1 µM)
